Experimental data taken from patent US20030091533A1, “Regulation of mononuclear phagocyte stimulation” (priority 2001, published 2003).

Key:
Assay type in all cases: cell-based, human
LPS-stimulated AM [1] = assay: TGF-β1 release by ELISA, AM; settings: acid-treated supernatants; preincubated 24 hour 20 ng/ml, LPS 20 h; medium-preincubated 109±23
Protocol: (§1) FIG. 6 depicts the effect of IL-9, IL-4 and IFN-γ on the release of IL-10 (A) and TGF-β1 (B) by LPS-stimulated PBM and AM cultured under the same conditions as described in FIG. 5 Example I. D. TGF-β1 was determined by ELISA in crude supernatants (untreated supernatants) and in ethanol-acid (acid-treated) supernatants, using a kit from Biosource for determining TGF-β1 release from its latent complexes. An ELISA kit from CLB (Amsterdam, The Netherlands) was used to determine IL-10 following the manufacturer's protocol. […] Data are means±SEM (n=3). *P<0.05 compared with unstimulated cells; **P<0.05 compared with cells preincubated with medium.
(§2) Cells (1×10^6 PBM or 0.5×10^6 AM/well) were distributed in 24-well plates (Falcon), preincubated in cRPMI for 24 hours at 37° C., 5% CO2 with cytokines (IL-9, IL-4 (20 ng/ml) and IFN-γ (200 U/ml)) and stimulated for 20 hours with 1 μg/ml LPS without removing cytokines. […] Release of TNF-α was quantified by a cytotoxicity bioassay using WEHI 164 cells clone 13, as previously described (Espevik and Nissen-Meyer, J. Immunol. Methods, 95:99-105 (1986) incorporated herein by reference), using rhTNF-α from Boehringer as a standard. IL-8, IL-10 and TGF-β1 concentrations were determined by ELISA. A kit from CLB (Amsterdam, The Netherlands) was used for IL-10 quantitation, following the manufacturer's protocol. […]

ERK½ = ERK½ MAP kinase phosphorylation immunoblot in PBM; settings: pretreatment before LPS 1 μg/ml; IL-9 20 ng/ml 24 hour; PD98059 1 hour
Protocol: PBM, isolated as described infra, were treated with 100 !M PD98059 (or with the same volume of DMSO as control) 1 hour before preincubation for 24 hour with medium or IL-9 (20 ng/ml). For the phosphoERK immunoblot assay (A), PBM were then stimulated by LPS (1 μg/ml) for the indicated periods of time (5 min to 20 hours) as compared to unstimulated cells (med), and processed for the detection of phosphorylated and total ERK½ as described in infra. For the oxidative burst (B), PBM were stimulated by LPS (1 μg/ml) for 20 hour and their oxidative capacity was evaluated through DCFH oxidation The results are presented in FIG. 7.
PBM were preincubated for 24 hour with medium alone (med) or IL-9, IL-4 or TGF-β1 (20 ng/ml), and stimulated by LPS (1 μg/ml) for the indicated periods of time (30 to 240 min). […]
PBM (1×10^6) were preincubated for 24 hour with medium alone or with cytokines (IL-9, IL-4 or TGF-β1 at 20 ng/ml) and stimulated from 5 min to 20 hour by 1 μg/ml LPS. […] Cell extracts (10 μg, as determined by the bicinchoninic acid-based assay) were subjected to SDS-12%PAGE, and electrotransferred onto a nitrocellulose membrane (Amersham) immunoblotted to detect and compare phosphorylated (threonine^202/tyrosine^204 residues) and total ERK½, using specific antibodies and enhanced chemiluminescence (New England Biolabs). […]

LPS-stimulated AM [2] = assay: IL-10 release by ELISA, AM; settings: preincubated 24 hour, LPS 20 h
Protocol: as §1, §2

| Molecule | production of TGF-β1 by LPS-stimulated AM (LPS-stimulated AM [1]) | LPS-induced ERK½ phosphorylation in PBM (ERK½) | IL-10 release by LPS-stimulated AM (LPS-stimulated AM [2]) |
| --- | --- | --- | --- |
| IL-9: Human IL-9 purified from SF9 insect cell cultures infected with recombinant baculovirus | 366+21 pg/ml | strongly down regulates |  |
| IFN-γ: Interferon gamma, primes mononuclear phagocytes, 200 U/ml (protein, UniProt P01579 24-161, looked up) Interferon gamma: QDPYVKEAENLKKYFNAGHSDVADNGTLFLGILKNWKEESDRKIMQSQIVSFYFKLFKNFKDDQSIQKSVETIKEDMNVKFFNSNKKKRDDFEKLTNYSVTDLNVQRKAIHELIQVMAELSPAAKTGKRKRSQMLFRG |  |  | decreased |
